Measured values: article PMC4607890, “The identification of novel Mycobacterium tuberculosis DHFR inhibitors and the investigation of their binding preferences by using molecular modelling” (Scientific Reports, 2015)

Columns and labels:
[1] = system: M. tuberculosis H37Ra (ATCC 25177); experiment: Microbroth culture for bacteriostatic and bactericidal activity (OD readings, subculture on 7H10 agar); type: cell-based, Mycobacterium tuberculosis; settings: Mtb H37Ra; for growth inhibition on the test strain: overall
Protocol: The anti-mycobacterial activity of the compounds was tested by the measurement of OD readings and agar plate cultures. The test strain used was a stock culture of M. tuberculosis H37Ra (ATCC 25177) stored at −80 °C. Prior to testing, the stock culture was thawed and grown on Middlebrook 7H10 agar (Difco, USA) to check for viability and purity. To prepare the inoculum, a suspension of the culture in Middlebrook 7H9 broth (Difco, USA) was adjusted to a turbidity equivalent to McFarland standard no.1 and further diluted to a final concentration of approximately 10^5 cfu/ml. The compounds were dissolved in DMSO and diluted in 1% DMSO in 7H9 broth to obtain 100 μg/ml, 50 μg/ml, 10 μg/ml, 5 μg/ml 1 μg/ml and 0.1 μg/ml of compound. Each dilution was pipetted in 150 μl duplicates into a sterile 96-well microtitre plate. Three controls were set up with (a) 1% DMSO in 7H9 broth (b) 7H9 broth without DMSO and (c) p-amino salicylic acid (PAS) at 4 μg/ml (26.12 μM) in 7H9 broth with 1% DMSO. All wells were then inoculated with 10 μl of the mycobacterial culture at 10^5 cfu/ml, sealed with parafilm and incubated at 36 °C for 28 days. OD readings (at 630 nm wavelength) were taken daily using TECAN spectrophotometer with Magellan software version 7.1. In addition, on day 14 and day 28, 10 μl was removed from each well for subculturing on compound-free 7H10 agar plates which were incubated up to six weeks at 36 °C. The number, size and time of appearance of colonies in each subculture was recorded. A random sample of colonies was stained for acid-fastness to exclude non-mycobacterial contamination. […] Compounds showing less increase in OD readings than the no-compound controls but positive growth in the subcultures were deemed to have bacteriostatic activity.

h-DHFR = target: T1, h-DHFR (Homo sapiens, UniProt P00374); experiment: in vitro enzyme assay, recombinant h-DHFR (NADPH oxidation at 340 nm); type: biochemical; settings: recombinant enzyme 20 nM, 40 μM NADPH, 40 μM dihydrofolate, pH 7.0, 25 °C
T1 construct: made in house
T1 sequence (P00374 1-187): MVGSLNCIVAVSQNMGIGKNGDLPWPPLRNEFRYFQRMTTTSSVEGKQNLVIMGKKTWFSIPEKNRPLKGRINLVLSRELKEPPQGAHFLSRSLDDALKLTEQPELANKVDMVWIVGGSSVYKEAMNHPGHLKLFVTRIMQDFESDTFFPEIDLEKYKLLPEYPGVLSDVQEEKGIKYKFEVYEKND

mt-DHFR = target: T2, mt-DHFR (Mycobacterium tuberculosis, UniProt P9WNX1); experiment: biochemical; type: biochemical; settings: for Ratio h-DHFR/mt-DHFR: ratio of IC50 values; for potency on mt-DHFR compared to h-DHFR: in vitro enzyme assays
T2 construct: made in house

mt-DHFR against h-DHFR = system: mt-DHFR against h-DHFR; design: method as in PMID 17451962; settings: TB5 Saccharomyces cerevisiae carrying DHFR genes; cited from earlier work
[2] = system: human DHFR (h-DHFR) and mt-DHFR; settings: cited from earlier work
[3] = compound concentration 0.1 μg/ml
[4] = compound concentration 10 μg/ml
[5] = compound concentration 50 μg/ml
[6] = compound concentration 100 μg/ml

T2 sequence (P9WNX1 whole entry): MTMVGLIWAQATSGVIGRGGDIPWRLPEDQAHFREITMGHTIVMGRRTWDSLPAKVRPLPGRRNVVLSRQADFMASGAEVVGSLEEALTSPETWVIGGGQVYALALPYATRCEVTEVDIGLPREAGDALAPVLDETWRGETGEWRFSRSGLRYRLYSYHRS

| Compound | colony counts after four weeks of exposure [1, 3] | colony counts after four weeks of exposure ([1]; compound concentration 1 μg/ml) | colony counts after four weeks of exposure ([1]; compound concentration 5 μg/ml) | colony counts after four weeks of exposure [1, 4] | colony counts after four weeks of exposure [1, 5] | colony counts after four weeks of exposure [1, 6] | IC50 (h-DHFR) [nM] | IC50 (mt-DHFR) [nM] | Ratio h-DHFR/mt-DHFR (mt-DHFR) | other results |
| --- | --- | --- | --- | --- | --- | --- | --- | --- | --- | --- |
| Nc1nc(N)c(-c2ccc(Cl)c(Cl)c2)c(COc2ccc([N+](=O)[O-])cc2)n1 [Compound 1] | +++ | +++ | +++ | +++ | +++ | +++ | 130 | 130 | 1 | – |
| Nc1nc(N)c(-c2ccc(Cl)c(Cl)c2)c(COc2cccc3ccccc23)n1 [Compound 2] | +++ | +++ | +++ | +++ | ++ (++, 11–100 colonies) | ++ (++, 11–100 colonies) | 70 | 110 | 0.64 | – |
| Nc1nc(N)c(-c2cccc(C(F)(F)F)c2)c(Cc2cccc(C(F)(F)F)c2)n1 [Compound 3] | +++ | +++ | +++ | +++ | ++ (++, 11–100 colonies) | + (+, 1–10 colonies) | 135 | 180 | 0.75 | – |
| Nc1ccc(C(=O)Nc2ccc(OCc3nc(N)nc(N)c3-c3ccc(Cl)cc3)cc2)cc1 [Compound 4] | +++ | +++ | +++ | +++ | ++ (++, 11–100 colonies) | – | 2500 | 2600 | 0.96 | activity compared with PAS (4 μg/ml) ([1]; 100 μg/ml): better activity than PAS; bactericidal activity ([1]; 100 μg/ml): bactericidal activity |
| CC(=O)Nc1cccc(OCc2cccc(N3C(=N)NC(=N)NC3(C)C)c2)c1 [Compound 5] | +++ | +++ | +++ | +++ | +++ | +++ | – | – | – | – |
| Nc1nc(N)c2c(ccc3c2ccn3Cc2cccc([N+](=O)[O-])c2)n1 [Compound 6] | +++ | +++ | +++ | ++ (++, 11–100 colonies) | – | – | 33 | 6 | 5.5 | activity compared with PAS (4 μg/ml, 26.12 μM) ([1]; 10 μg/ml (25.37 μM)): same activity as PAS; colony count ([1]; 10 μg/ml (25.37 μM)): notable reduction in colony count; bactericidal activity ([1]; 50 μg/ml): bactericidal; activity compared with PAS (4 μg/ml) ([1]; 100 μg/ml): better activity than PAS; bactericidal activity ([1]; 100 μg/ml): bactericidal activity; growth inhibition on the test strain [1]: strongest bactericidal activity; inhibition of mt-DHFR (mt-DHFR; in vitro enzyme assay): most potent inhibitor of mt-DHFR; potency on mt-DHFR compared to h-DHFR (mt-DHFR): more potent inhibitors of mt-DHFR compared to h-DHFR |
| Nc1nc(N)c2cc(S(=O)(=O)c3ccc(Cl)cc3)ccc2n1 [Compound 7] | +++ | +++ | +++ | +++ | +++ | +++ | 440 | 63 | 6.98 | growth inhibition on the test strain [1]: least growth inhibition, affecting the colony size but not the colony count; potency on mt-DHFR compared to h-DHFR (mt-DHFR): more potent inhibitors of mt-DHFR compared to h-DHFR |
| Nc1nc(N)c2cc(Sc3ccc(Cl)cc3)ccc2n1 [Compound 8] | +++ | +++ | +++ | +++ | +++ | – | 100 | 40 | 2.5 | activity compared with PAS (4 μg/ml) ([1]; 100 μg/ml): better activity than PAS; bactericidal activity ([1]; 100 μg/ml): bactericidal activity; growth in the 14-day subculture ([1]; after exposure to 50 μg/ml): did not grow; growth in the 28-day subculture ([1]; after exposure to 50 μg/ml): formed abundant colonies; potency on mt-DHFR compared to h-DHFR (mt-DHFR): more potent inhibitors of mt-DHFR compared to h-DHFR |
| Nc1nc(N)c(-c2ccccc2)c(CC[C@@H](O)[C@@H](O)CO)n1 [El-7a] | – | – | – | – | – | – | – | – | – | selectivity for inhibition effects on mt-DHFR against h-DHFR (mt-DHFR against h-DHFR): notable selectivity |
| CN(Cc1cnc2nc(N)nc(N)c2n1)c1ccc(C(=O)N[C@@H](CCC(=O)O)C(=O)O)cc1 [MTX, Methotrexate] | – | – | – | – | – | – | – | – | – | selectivity of binding h-DHFR vs mt-DHFR [2]: without any significant selectivity |
| Nc1ccc(C(=O)O)c(O)c1 [PAS, p-amino salicylic acid, reference compound] | – | – | – | – | – | – | – | – | – | delay in the appearance of colonies ([1]; PAS 4 μg/ml (26.12 μM)): two-week delay; growth of colonies on 7H10 agar ([1]; PAS 4 μg/ml (26.12 μM)): only scanty growth; reduction in growth ([1]; PAS 4 μg/ml (26.12 μM)): more than two-log reduction in growth; colony counts after four weeks of exposure ([1]; PAS control at 4 μg/ml (26.12 μM)): ++ (++, 11–100 colonies) |
